Data reported in patent publication US20190174812A1, “SOLID ORAL NICOTINE FORMULATION” (Fertin Pharma A/S, priority 2017, published 2019).

Conditions: nicotine concentration raised from 100 microgram/mL to 14,000 microgram/mL

CN1CCCC1c1cccnc1 (stereo not shown) [nicotine]
Decrease of permeability of nicotine across the buccal mucosa (factor): two
